Results: patent US7081460B2, “Quinazoline and quinazoline-like compounds for the treatment of integrin-mediated disorders” (Ortho-McNeil Pharmaceutical, Inc., priority 2001, dated 2006)
Where two headings read alike, the source gives them in different places.

Legend:
[1] = target: T1, Human αvβ3 (Homo sapiens, UniProt P05106+P06756); test: In vitro solid phase purified αvβ3 binding assay (vitronectin/αvβ3)
T1 construct: purchased Chemicon International Inc., Temecula, Calif
Protocol: (§1) In vitro Solid Phase Purified αvβ3 Binding Assay The vitronectin/αvβ3 binding assay methods were derived from Mehta et al. (Biochem J. 1998, 330, 861). Human αvβ3 (Chemicon International Inc., Temecula, Calif.), at a concentration of 1 μg/ml dissolved in Tris buffer (20 mM Tris, 1 mM CaCl2, 1 mM MgCl2, 10 μM MnCl2, 150 mM NaCl), was immobilized on Immulon 96 well plates (Dynex Technologies, Chantilly, Va.) overnight at 4° C. Plates were washed and treated with blocking buffer (3% BSA in Tris buffer) for 2 h at 37 C. Plates were then rinsed 2 times in Tris buffer containing 0.3% BSA and 0.2% Tween20 (polyoxyethylenesorbitan monolaurate). Five minutes prior to the addition of 5 nM vitronectin (Sigma, St. Louis, Mo.), compounds of the invention were added to wells in duplicate. Each plate included c-RGDfV as an internal control. Following a 3 hour incubation at 37° C., plates were washed 5 times in assay buffer. An anti-human vitronectin IgG rabbit polyclonal antibody (Calbiochem, San Diego, Calif.) was added (1:2000) and plates were incubated for 1 hour at room temperature. VectaStain ABC peroxidase kit reagents (Vector Laboratories, Burlingame, Calif.) employing a biotin labeled anti-rabbit IgG, were utilized for detection of bound antibody. Plates were read at 490 nm on a Molecular Devices (Sunnyvale, Calif.) microplate reader. […] The plate was covered and incubated overnight at 4° C. The GPIIb/IIIa solution was discarded and 150 μl of 5% BSA was added and incubated at RT for 1–3 h. The plate was washed extensively with modified Tyrodes buffer. Biotinylated fibrinogen (25 μl/well) at 2× final concentration was added to the wells that contain the test compounds (25 μl/well). The plate was covered and incubated at RT for 2–4 h. Twenty minutes prior to incubation completion, one drop of Reagent A (VectaStain ABC Horse Radish Peroxidase kit, Vector Laboratories, Inc.) and one drop Reagent B were added with mixing to 5 mL modified Tyrodes buffer mix and let stand. The ligand solution was discarded and the plate washed (5×200 μl/well) with modified Tyrodes buffer. Vecta Stain HRP-Biotin-Avidin reagent (50 μl/well, as prepared above) was added and incubated at RT for 15 min. The Vecta Stain solution was discarded and the wells washed (5×200 μl/well) with modified Tyrodes buffer. Developing buffer (10 mL of 50 mM citrate/phosphate buffer @ pH 5.3, 6 mg o-phenylenediamine, 6 μl 30% H2O2; 50 μl/well) was added and incubated at rt for 3–5 min, and then 2 N H2SO4 (50 μl/well) was added. The absorbance was read at 490 nm.

[2] = target: GPIIb/IIIa (Homo sapiens, UniProt P05106+P08514); test: In vitro solid phase purified glycoprotein IIb/IIIa binding assay (biotinylated fibrinogen)
GPIIb/IIIa, sequence (P08514 32-887 limits assumed): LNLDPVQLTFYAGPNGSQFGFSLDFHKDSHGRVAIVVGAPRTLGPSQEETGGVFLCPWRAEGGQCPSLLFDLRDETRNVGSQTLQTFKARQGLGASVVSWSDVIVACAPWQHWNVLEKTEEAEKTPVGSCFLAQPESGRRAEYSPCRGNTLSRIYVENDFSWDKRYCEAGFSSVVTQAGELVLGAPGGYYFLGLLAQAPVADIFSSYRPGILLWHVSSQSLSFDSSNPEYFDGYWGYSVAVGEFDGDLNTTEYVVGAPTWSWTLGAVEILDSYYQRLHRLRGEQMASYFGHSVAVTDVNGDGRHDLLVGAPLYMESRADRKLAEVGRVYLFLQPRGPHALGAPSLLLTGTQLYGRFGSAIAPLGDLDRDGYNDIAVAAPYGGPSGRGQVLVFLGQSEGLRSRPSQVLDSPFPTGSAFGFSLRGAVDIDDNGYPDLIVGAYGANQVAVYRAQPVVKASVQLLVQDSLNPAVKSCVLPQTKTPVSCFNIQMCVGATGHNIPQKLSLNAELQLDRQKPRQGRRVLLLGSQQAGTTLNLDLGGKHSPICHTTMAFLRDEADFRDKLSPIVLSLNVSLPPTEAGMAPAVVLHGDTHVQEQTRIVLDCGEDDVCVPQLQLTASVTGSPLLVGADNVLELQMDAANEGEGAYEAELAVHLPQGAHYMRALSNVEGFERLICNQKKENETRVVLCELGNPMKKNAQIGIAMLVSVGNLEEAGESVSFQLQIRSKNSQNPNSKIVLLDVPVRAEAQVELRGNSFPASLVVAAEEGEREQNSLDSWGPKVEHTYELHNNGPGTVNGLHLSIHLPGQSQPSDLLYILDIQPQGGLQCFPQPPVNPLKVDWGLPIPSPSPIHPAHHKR
GPIIb/IIIa, sequence (P08514 891-1039 partner limits assumed): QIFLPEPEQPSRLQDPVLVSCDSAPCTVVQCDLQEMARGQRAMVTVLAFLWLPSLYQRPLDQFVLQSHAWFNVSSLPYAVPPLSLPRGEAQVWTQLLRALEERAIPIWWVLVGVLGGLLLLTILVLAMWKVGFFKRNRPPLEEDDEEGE
GPIIb/IIIa, sequence (P05106 27-788): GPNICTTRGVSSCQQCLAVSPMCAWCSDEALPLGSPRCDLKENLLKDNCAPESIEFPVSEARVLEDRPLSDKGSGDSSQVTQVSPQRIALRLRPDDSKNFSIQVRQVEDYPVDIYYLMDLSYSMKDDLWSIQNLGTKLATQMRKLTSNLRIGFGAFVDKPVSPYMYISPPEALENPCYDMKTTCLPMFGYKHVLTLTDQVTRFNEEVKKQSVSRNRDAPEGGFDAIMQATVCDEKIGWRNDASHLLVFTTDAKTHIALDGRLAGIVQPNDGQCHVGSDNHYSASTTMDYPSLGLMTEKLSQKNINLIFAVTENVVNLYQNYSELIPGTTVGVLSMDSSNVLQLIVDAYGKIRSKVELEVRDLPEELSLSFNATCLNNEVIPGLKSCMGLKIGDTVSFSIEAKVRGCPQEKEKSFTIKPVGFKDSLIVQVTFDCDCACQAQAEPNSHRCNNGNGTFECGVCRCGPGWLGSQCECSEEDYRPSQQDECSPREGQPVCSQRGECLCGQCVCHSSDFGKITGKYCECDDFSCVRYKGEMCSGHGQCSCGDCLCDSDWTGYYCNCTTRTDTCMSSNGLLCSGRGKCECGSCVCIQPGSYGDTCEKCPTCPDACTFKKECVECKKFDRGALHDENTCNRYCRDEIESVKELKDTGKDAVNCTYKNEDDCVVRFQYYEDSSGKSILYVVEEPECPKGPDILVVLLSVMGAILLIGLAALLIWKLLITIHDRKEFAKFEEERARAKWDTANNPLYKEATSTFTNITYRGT
Protocol: as §1

[3] = isolated human αvβ3, 5 nM vitronectin, read-out: αvβ3 Binding IC50
[4] = RGD-affinity purified GPIIb/IIIa, biotinylated fibrinogen, read-out: GPIIb/IIIa Binding IC50

T1 sequence (P06756 31-889 limits assumed): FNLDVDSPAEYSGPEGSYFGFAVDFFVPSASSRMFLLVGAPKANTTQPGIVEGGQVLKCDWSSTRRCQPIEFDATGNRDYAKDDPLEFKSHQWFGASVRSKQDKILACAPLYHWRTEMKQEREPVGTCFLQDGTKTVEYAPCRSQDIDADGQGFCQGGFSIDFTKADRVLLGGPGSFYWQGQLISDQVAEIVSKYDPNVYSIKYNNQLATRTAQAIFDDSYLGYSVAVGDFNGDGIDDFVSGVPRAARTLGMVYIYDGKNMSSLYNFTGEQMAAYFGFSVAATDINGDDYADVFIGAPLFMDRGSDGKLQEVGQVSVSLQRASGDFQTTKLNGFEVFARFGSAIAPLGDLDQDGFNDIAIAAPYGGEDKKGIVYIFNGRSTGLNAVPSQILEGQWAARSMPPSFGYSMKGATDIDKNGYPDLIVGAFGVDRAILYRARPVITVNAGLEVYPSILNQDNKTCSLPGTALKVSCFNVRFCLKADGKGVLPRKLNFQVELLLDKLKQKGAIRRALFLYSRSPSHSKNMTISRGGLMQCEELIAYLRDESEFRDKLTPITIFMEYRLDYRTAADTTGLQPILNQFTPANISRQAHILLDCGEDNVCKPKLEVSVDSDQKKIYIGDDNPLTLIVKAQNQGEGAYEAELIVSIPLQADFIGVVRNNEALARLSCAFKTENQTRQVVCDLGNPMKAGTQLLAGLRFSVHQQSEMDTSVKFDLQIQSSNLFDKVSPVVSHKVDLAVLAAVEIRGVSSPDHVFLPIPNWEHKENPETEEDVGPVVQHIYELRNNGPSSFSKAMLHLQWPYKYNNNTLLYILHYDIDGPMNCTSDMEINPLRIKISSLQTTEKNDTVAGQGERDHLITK
T1 sequence (P06756 891-1048 partner limits assumed): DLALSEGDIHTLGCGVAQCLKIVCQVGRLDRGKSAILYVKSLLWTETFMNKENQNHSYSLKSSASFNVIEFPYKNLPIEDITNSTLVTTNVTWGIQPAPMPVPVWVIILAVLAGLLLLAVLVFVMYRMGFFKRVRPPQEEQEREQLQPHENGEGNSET
T1 sequence (P05106 27-788): as the sequence (P05106 27-788) above

Work on `Cc1c(C)c(C)c(S(=O)(=O)N[C@@H](Cc2nc3ccc(/C=C/CNC(=O)NC(C)C)cc3c(=O)[nH]2)C(=O)O)c(C)c1C` [Compound 58, (αS)-3,4-dihydro-6-[(1E)-3-[[[(1-methylethyl)amino]carbonyl]amino]-1-propenyl]-4-oxo-α-[[(2,3,4,5,6-pentamethylphenyl)sulfonyl]amino]-2-quinazolinepropanoic acid] yielded an IC50 [1, 3] of 44 nM and an IC50 [2, 4] of 2500 nM.

For `Cc1c(C)c(C)c(S(=O)(=O)N[C@@H](Cc2nc3ccc(/C=C/CNC(=N)c4cccnc4)cc3c(=O)[nH]2)C(=O)O)c(C)c1C` [Compound 47, (αS)-3,4-dihydro-6-[(1E)-3-[(imino-3-pyridinylmethyl)amino]-1-propenyl]-4-oxo-α-[[(2,3,4,5,6-pentamethylphenyl)sulfonyl]amino]-2-quinazolinepropanoic acid], the IC50 [1, 3] was 132 nM and the IC50 [2, 4] was 96 nM.

`Cc1c(C)c(C)c(S(=O)(=O)N[C@@H](Cc2nc3ccc(CCCNc4ccccn4)cc3c(=O)[nH]2)C(=O)O)c(C)c1C` [Compound 11, (αS)-3,4-dihydro-4-oxo-α-[[(2,3,4,5,6-pentamethylphenyl)sulfonyl]amino]-6-[3-(2-pyridinylamino)propyl]-2-quinazolinepropanoic Acid] gave an IC50 [1, 3] of 9.6 nM and an IC50 [2, 4] of 640 nM.

In the case of `Cc1c(C)c(C)c(S(=O)(=O)N[C@@H](Cc2nc3ccc(/C=C/CNc4nc5ccccc5c(=O)[nH]4)cc3c(=O)[nH]2)C(=O)O)c(C)c1C` [Compound 61, 6-[(1E)-3-[(3,4-dihydro-4-oxo-2-quinazolinyl)amino]-1-propenyl]-(αS)-3,4-dihydro-4-oxo-α-[[(2,3,4,5,6-pentamethylphenyl)sulfonyl]amino]-2-quinazolinepropanoic acid], the IC50 [1, 3] is reported as 69 nM and the IC50 [2, 4] is reported as 12000 nM.

`O=C(O)[C@H](Cc1nc2ccc(/C=C/CNC3=NCCN3)cc2c(=O)[nH]1)NS(=O)(=O)c1cccc2cccnc12` [Compound 4, 6-[(1E)-3-[(4,5-dihydro-1H-imidazol-2-yl)amino]-1-propenyl]-(αS)-3,4-dihydro-4-oxo-α-[(8-quinolinylsulfonyl)amino]-2-quinazolinepropanoic Acid] was tested, and the IC50 [1, 3] was 14 nM and the IC50 [2, 4] was 320 nM.

In the case of `Cc1c(C)c(C)c(S(=O)(=O)N[C@@H](Cc2nc3ccc(/C=C/CNC4=NCCCCC4)cc3c(=O)[nH]2)C(=O)O)c(C)c1C` [Compound 74, (αS)-3,4-dihydro-4-oxo-α-[[(2,3,4,5,6-pentamethylphenyl)sulfonyl]amino]-6-[(1E)-3-[(3,4,5,6-tetrahydro-2H-azepin-7-yl)amino]-1-propenyl]-2-quinazolinepropanoic acid], the IC50 [1, 3] is reported as 5400 nM and the IC50 [2, 4] is reported as 1300 nM.

Molecule `COc1cc(C)c(S(=O)(=O)N[C@@H](Cc2nc3ccc(/C=C/CNC(=O)NCc4ccccc4)cc3c(=O)[nH]2)C(=O)O)c(C)c1C` [Compound 56, (αS)-3,4-dihydro-α-[[(4-methoxy-2,3,6-trimethylphenyl)sulfonyl]amino]-4-oxo-6-[(1E)-3-[[[(phenylmethyl)amino]carbonyl]amino]-1-propenyl]-2-quinazolinepropanoic acid] has an IC50 [1, 3] of 32 nM and an IC50 [2, 4] of 3900 nM.

In the case of `O=C(N[C@@H](Cc1nc2ccc(C#CCNC3=NCCN3)cc2c(=O)[nH]1)C(=O)O)OCc1ccccc1` [Compound 20, 6-[3-[(4,5-dihydro-1H-imidazol-2-yl)amino]-1-propynyl]-(αS)-3,4-dihydro-4-oxo-α-[[(phenylmethoxy)carbonyl]amino]-2-quinazolinepropanoic acid], the IC50 [1, 3] is reported as > 5000 nM and the IC50 [2, 4] is reported as 660 nM.

In the case of `Cc1c(C)c(C)c(S(=O)(=O)N[C@H](CC(=O)O)c2nc3ccc(/C=C/CNc4ccccn4)cc3c(=O)[nH]2)c(C)c1C` [Compound 14, (βR)-3,4-dihydro-4-oxo-β-[[(2,3,4,5,6-pentamethylphenyl)sulfonyl]amino]-6-[(1E)-3-(2-pyridinylamino)-1-propenyl]-2-quinazolinepropanoic Acid], the IC50 [1, 3] is reported as 25 nM and the IC50 [2, 4] is reported as 1800 nM.

With `CNC(=O)NC/C=C/c1ccc2nc(C[C@H](NS(=O)(=O)c3c(C)c(C)c(C)c(C)c3C)C(=O)O)[nH]c(=O)c2c1` [Compound 59, (αS)-3,4-dihydro-6-[(1E)-3-[[(methylamino)carbonyl]amino]-1-propenyl]-4-oxo-α-[[(2,3,4,5,6-pentamethylphenyl)sulfonyl]amino]-2-quinazolinepropanoic acid] the IC50 [1, 3] was 59 nM and the IC50 [2, 4] was 3900 nM.

For `Cc1nn(C)c(Cl)c1S(=O)(=O)N[C@@H](Cc1nc2ccc(/C=C/CNc3ccccn3)cc2c(=O)[nH]1)C(=O)O` [Compound 36, α-[[(5-chloro-1,3-dimethyl-1H-pyrazol-4-yl)sulfonyl]amino]-(αS)-3,4-dihydro-4-oxo-6-[(1E)-3-(2-pyridinylamino)-1-propenyl]-2-quinazolinepropanoic acid], the IC50 [1, 3] was 25 nM and the IC50 [2, 4] was 2700 nM.

Molecule `COc1ccc(S(=O)(=O)N[C@@H](Cc2nc3ccc(/C=C/CNC4=NCCCC4)cc3c(=O)[nH]2)C(=O)O)cc1OC` [Compound 60, α-[[(3,4-dimethoxyphenyl)sulfonyl]amino]-(αS)-3,4-dihydro-4-oxo-6-[(1E)-3-[(3,4,5,6-tetrahydro-2-pyridinyl)amino]-1-propenyl]-2-quinazolinepropanoic acid] has an IC50 [1, 3] of 58 nM and an IC50 [2, 4] of 620 nM.

For `Cc1cccnc1NC/C=C/c1ccc2nc(C[C@H](NS(=O)(=O)c3c(C)c(C)c(C)c(C)c3C)C(=O)O)[nH]c(=O)c2c1` [Compound 38, (αS)-3,4-dihydro-6-[(1E)-3-[(3-methyl-2-pyridinyl)amino]-1-propenyl]-4-oxo-α-[[(2,3,4,5,6-pentamethylphenyl)sulfonyl]amino]-2-quinazolinepropanoic acid], the IC50 [1, 3] was 1400 nM and the IC50 [2, 4] was 220 nM.

With `COc1cccc([C@@H](CC(=O)O)c2nc3ccc(/C=C/CNc4ccccn4)cc3c(=O)n2C)c1` [Compound 18, (βR)-3,4-dihydro-β-(3-methoxyphenyl)-3-methyl-4-oxo-6-[(1E)-3-(2-pyridinylamino)-1-propenyl]-2-quinazolinepropanoic Acid] the IC50 [1, 3] was 18000 nM and the IC50 [2, 4] was > 50000 nM.

For `Cc1c(C)c(C)c(S(=O)(=O)N[C@@H](Cc2nc3ccc(/C=C/CNc4ccc(Cl)cn4)cc3c(=O)[nH]2)C(=O)O)c(C)c1C` [Compound 39, 6-[(1E)-3-[(5-chloro-2-pyridinyl)amino]-1-propenyl]-(αS)-3,4-dihydro-4-oxo-α-[[(2,3,4,5,6-pentamethylphenyl)sulfonyl]amino]-2-quinazolinepropanoic acid], the IC50 [1, 3] was 1800 nM and the IC50 [2, 4] was 1800 nM.

In the case of `Cc1c(C)c(C)c(S(=O)(=O)N[C@@H](Cc2nc3ccc(/C=C/CNC4=NCCN4)cc3c(=O)[nH]2)C(=O)O)c(C)c1C` [Compound 1, 6-[(1E)-3-[(4,5-dihydro-1H-imidazol-2-yl)amino]-1-propenyl]-(αS)-3,4-dihydro-4-oxo-α-[[(2,3,4,5,6-pentamethylphenyl)sulfonyl]amino]-2-quinazolinepropanoic Acid], the IC50 [1, 3] is reported as 0.75 nM and the IC50 [2, 4] is reported as 24 nM.

`O=C(O)[C@H](Cc1nc2ccc(/C=C/CNc3ccccn3)cc2c(=O)[nH]1)NS(=O)(=O)c1cccs1` [Compound 34, (αS)-3,4-dihydro-4-oxo-6-[(1E)-3-(2-pyridinylamino)-1-propenyl]-α-[(2-thienylsulfonyl)amino]-2-quinazolinepropanoic acid] was tested, and the IC50 [1, 3] was 83 nM and the IC50 [2, 4] was 1600 nM.

With `COc1ccc(S(=O)(=O)N[C@@H](Cc2nc3ccc(/C=C/CNC4=NCCC4)cc3c(=O)[nH]2)C(=O)O)cc1OC` [Compound 55, 6-[(1E)-3-[(3,4-dihydro-2H-pyrrol-5-yl)amino]-1-propenyl]-α-[[(3,4-dimethoxyphenyl)sulfonyl]amino]-(αS)-3,4-dihydro-4-oxo-2-quinazolinepropanoic acid] the IC50 [1, 3] was 42 nM and the IC50 [2, 4] was 270 nM.

In the case of `COc1ccc(OC(=O)N[C@@H](Cc2nc3ccc(/C=C/CNC(=O)NCc4ccccc4)cc3c(=O)[nH]2)C(=O)O)cc1` [Compound 77, (αS)-3,4-dihydro-α-[[(4-methoxyphenoxy)carbonyl]amino]-4-oxo-6-[(1E)-3-[[[(phenylmethyl)amino]carbonyl]amino]-1-propenyl]-2-quinazolinepropanoic acid], the IC50 [1] is reported as > 500 nM and the IC50 [2] is reported as 46000 nM.
